Experiment [1] concerns the target T1, LRRK2 G2019S (Homo sapiens, UniProt Q5S007, G2019S). Briefly: In vitro kinase assay: G2019S LRRK2-mediated MBP phosphorylation. It counts as biochemical. As to conditions: mean of three experiments. The method, then:
(§1) Transfection was performed by using Fugene HD reagent (Roche Applied Science) according to the manufacturer's instruction. For purification of recombinant LRRK1 and LRRK2 proteins, ACTA Purifier (GE Healthcare) FPLC system was used.
(§2) Resulting lysates were rotated at 4° C. for 30 min followed by centrifugation at 20,000×g for 15 min. The supernatants were injected into a GSTrap FF column pre-equilibrated with PBS at 0.5. mL/min flow after filtration using a 0.2 μm syringe filter (Corning). The bound proteins were eluted with buffer containing 10 mM GSH (Sigma), 150 mM NaCl, and 50 mM Tris-HCl (pH 8.0).
(§3) The in vitro kinase assay was performed as previously described. […] Recombinant LRRK2 and MBP or CST-4E-BP1 were combined before the kinase reaction. LRRK2 autophosphorylation is LRRK2 itself phosphorylation and MBP or GST-4E-BP1 phosphorylation is induced by LRRK2. After the kinase reaction, combined LRRK2 and MBP or GST-4E-BP1 were loaded on SDSPAGE and phosphorylated LRRK2 and MBP or GST-4E-BP1 could be detected separately an a single gel. Recombinant proteins and inhibitors were incubated at 30° C. in kinase assay buffer containing 20 mM Hepes (pH 7.4), 5 mM EGTA, and 20 mM β-glycerol phosphate. 0.5 μg MBP (Upstate) or 0.5 μg GST-4B-BP1, 50 μM ATP (Sigma), 20 mM MgCl2, and 1 μCi [γ-32P] ATP (PerkinElmer) was added after 5 min. The reaction was performed at 30° C. to reduce non-specific 32P incorporation for 15 min and terminated by the addition of 5×Laemmili sample buffer. […] Gels were stained by coomassie brilliant blue after fixation with 10% acetic acid and 40% methanol and then exposed to a Phosphoimager. Data were analyzed by ImageQuant 6.0 software.
(§4) To calculate the IC50 value, a dose-response curve was constructed and non-linear regression analysis using the equation for a sigmoid plot.

Experiment [2] concerns the target T2, LRRK2 WT (Homo sapiens, UniProt Q5S007). In words: In vitro kinase assay: LRRK2 autophosphorylation. It counts as biochemical. The conditions noted are these: for IC50: mean of three experiments; for LRRK2 autophosphorylation Average ± SEM: compound 16 μM, phosphorylation normalized to absence of compound, mean ± S.E.M. of three experiments; for effect on LRRK2 autophosphorylation: screen at 16 μM.

In experiment [3] the target is T1, LRRK2 G2019S. In words: In vitro kinase assay: G2019S LRRK2 autophosphorylation. It counts as biochemical. The conditions noted are these: mean of three experiments. The method, then:
as §1, §2, §3, §4

The target in experiment [4] is T2, LRRK2 WT. Briefly: In vitro kinase assay: LRRK2-mediated MBP phosphorylation. The format is biochemical. The conditions noted are these: for IC50: mean of three experiments; for MBP phosphorylation Average ± SEM: compound 16 μM, 30° C., 15 min, normalized to absence of compound, mean ± S.E.M. of three experiments; for effect on LRRK2-mediated phosphorylation of MBP: screen at 16 μM.

Experiment [5] has as its target T3, LRRK1 WT (Homo sapiens, UniProt Q38SD2). In words: In vitro kinase assay: LRRK1 autophosphorylation. The format is biochemical.
For experiment [6], the target named is T3, LRRK1 WT. Briefly: In vitro kinase assay: LRRK1-mediated MBP phosphorylation. It counts as biochemical. As to conditions: for IC50: Table 3, mean of three experiments.
The test system of experiment [7] is C. elegans expressing LRRK2 G2019S in DA neurons. Briefly: Transgenic nematode model of LRRK2 G2019S-induced DA neurodegeneration. It counts as in vivo, Caenorhabditis elegans. The method, then:
Nematodes were maintained following the standard procedures. Brenner, S., 771 GENETICS 71-94 (1974). Isogenic worm strains expressing LRRK2, G2019S, UAXX [baInlX; Pdat-1::LRRK2 G2019S, Pdat-1::gfp] were generated via microinjection, integrated into the genome and out-crossed three times. Age-synchronized worms were obtained by treating gravid adults with 2% sodium hypochlorite and 0.5M NaOH to isolate embryos. Lewis, J. A., 48 METHODS CELL BIOL. 3-29 (1995). These embryos were treated with indicated concentrations of LRRK2 kinase inhibitors, which were dissolved in 1% DSMO, for 24 h. at 20° C. with gentle shaking. The worms were then washed and transferred into NGM plates seeded with OP50 bacteria, and incubated as 20° C. The six anterior DA neurons (4 CEP and 2 ADE neurons) of 30 animals/trial were examined for neurodegeneration when the animals were 7 days old. A total of 90 animals for each treatment were analyzed (3 trials of 30 animals/trial). […] See Hamamichi et al., 105(2) PROC. NATL. ACAD. SCI. USA 728-33 (2008); and Cao et al, 25 J. NEUROSCI. 3801-12 (2005). For each trial, 30 worms were transferred into a 2% agarose pad, immobilized with 2 mM levamisole, and analyzed using Nikon Eclipse E800 epifluorescence microscope equipped with Endow GFP HYQ filter cube (Chrom Technology, Rockingham, Vt.). Images were captured with a Cool Snap CCD camera (Photometrics, Tucson, Ariz.) driven by MetaMorph software (Universal Imaging, West Chester, Pa.).
To determine whether the LRRK2 kinase inhibitors protect against LRRK2-induced neurodegeneration in vivo, the LRRK2 kinase inhibitors were tested in the C. elegans model of LRRK2 G2019S-induced neurodegeneration described above. The DA transporter (dat-1) was used to direct expression of LRRK2 G2019S in DA neurons.

Experiment [8] has as its system rat primary cortical neuronal cultures transfected with G2019S LRRK2. In words: LRRK2-induced neuronal toxicity in primary cortical neuronal cultures (neurite shortening, TUNEL). The format is cell-based. The conditions noted are these: 0.5 μM. The method, then:
Representative photomicrographs of each experimental group. LRRK2 and eGFP constructs were combined in a molar ratio of 10:1, respectively, and transfected by using of Lipofectamine 2000 (Invitrogen) at DIV (day in vitro) 14 into rat primary cortical neuronal cultures. Compounds (0.5 μM) were administrated at the time of transfection and continued until toxicity assessments. On DIV 16, images were collected on a Zeiss Automatic stage with Axiovision 6.0. (a) Low magnified photomicrographs; (b and c) High magnified photomicrographs. Scale bar=50 μm (a) and 10 μm (b and c);
Primary cortical neuronal cultures were prepared from gestational day 15 fetal rats as previously described. Gonzalez-Zulueta, M., et al. Manganese superoxide dismutase protects nNOS neurons from NMDA and nitric oxide-mediated neurotoxicity. J Neurosci 18, 2040-2055 (1998). All procedures used in this study were approved by the Johns Hopkins Medical Institute Animal Care Committee. Cell viability assays and DNA fragmentation (TUNEL assay) were performed as previously described. Smith, W. W., et al. Kinase activity of mutant LRRK2 mediates neuronal toxicity. Nat Neurosci 9, 1231-1233 (2006); West, A. B., et al. Parkinson's disease-associated mutations in LRRK2 link enhanced GTP-binding and kinase activities to neuronal toxicity. Hum Mol Genet 16, 223-232 (2007). The cortex was dissected, incubated for 15 min in 0.027% trypsin, and then transferred to modified Eagle's medium (MEM)/10% horse serum/10% fetal bovine serum/2 mM glutamine followed by trituration. Dissociated cells were plated at a density of 3-4×10^5 cells per well in polyornithine-coated plates. After 4 days the cells were treated with 10 μg of 5-fluoro-2′-deoxyuridine to prevent proliferation of nonneuronal cells. Cells were maintained in MEM/5% horse serum/2 mM glutamine in 8% CO2 incubator. The medium was changed twice weekly. For assessment of LRRK2-mediated neuronal injury, LRRK2 and eGFP constructs were combined in a molar ratio of 10:1, respectively, and transfected into neurons with Lipofectamine 2000 (Invitrogen) at DIV (day in vitro) 14. On DIV 16, images were collected on a Zeiss Automatic stage with Axiovision 6.0. Viable neurons were defined as having at least one smooth extension (neurite) with twice the length of the cell body. The percentage of eGFP-positive injured neurons in each experimental group relative to those neurons transfected with eGFP was calculated.

The values below come from patent publication US20150018301A1, “LRRK-2-Mediated Neuronal Toxicity” (THE JOHNS HOPKINS UNIVERSITY, priority 2009, published 2015).

T2 sequence (Q5S007 whole entry): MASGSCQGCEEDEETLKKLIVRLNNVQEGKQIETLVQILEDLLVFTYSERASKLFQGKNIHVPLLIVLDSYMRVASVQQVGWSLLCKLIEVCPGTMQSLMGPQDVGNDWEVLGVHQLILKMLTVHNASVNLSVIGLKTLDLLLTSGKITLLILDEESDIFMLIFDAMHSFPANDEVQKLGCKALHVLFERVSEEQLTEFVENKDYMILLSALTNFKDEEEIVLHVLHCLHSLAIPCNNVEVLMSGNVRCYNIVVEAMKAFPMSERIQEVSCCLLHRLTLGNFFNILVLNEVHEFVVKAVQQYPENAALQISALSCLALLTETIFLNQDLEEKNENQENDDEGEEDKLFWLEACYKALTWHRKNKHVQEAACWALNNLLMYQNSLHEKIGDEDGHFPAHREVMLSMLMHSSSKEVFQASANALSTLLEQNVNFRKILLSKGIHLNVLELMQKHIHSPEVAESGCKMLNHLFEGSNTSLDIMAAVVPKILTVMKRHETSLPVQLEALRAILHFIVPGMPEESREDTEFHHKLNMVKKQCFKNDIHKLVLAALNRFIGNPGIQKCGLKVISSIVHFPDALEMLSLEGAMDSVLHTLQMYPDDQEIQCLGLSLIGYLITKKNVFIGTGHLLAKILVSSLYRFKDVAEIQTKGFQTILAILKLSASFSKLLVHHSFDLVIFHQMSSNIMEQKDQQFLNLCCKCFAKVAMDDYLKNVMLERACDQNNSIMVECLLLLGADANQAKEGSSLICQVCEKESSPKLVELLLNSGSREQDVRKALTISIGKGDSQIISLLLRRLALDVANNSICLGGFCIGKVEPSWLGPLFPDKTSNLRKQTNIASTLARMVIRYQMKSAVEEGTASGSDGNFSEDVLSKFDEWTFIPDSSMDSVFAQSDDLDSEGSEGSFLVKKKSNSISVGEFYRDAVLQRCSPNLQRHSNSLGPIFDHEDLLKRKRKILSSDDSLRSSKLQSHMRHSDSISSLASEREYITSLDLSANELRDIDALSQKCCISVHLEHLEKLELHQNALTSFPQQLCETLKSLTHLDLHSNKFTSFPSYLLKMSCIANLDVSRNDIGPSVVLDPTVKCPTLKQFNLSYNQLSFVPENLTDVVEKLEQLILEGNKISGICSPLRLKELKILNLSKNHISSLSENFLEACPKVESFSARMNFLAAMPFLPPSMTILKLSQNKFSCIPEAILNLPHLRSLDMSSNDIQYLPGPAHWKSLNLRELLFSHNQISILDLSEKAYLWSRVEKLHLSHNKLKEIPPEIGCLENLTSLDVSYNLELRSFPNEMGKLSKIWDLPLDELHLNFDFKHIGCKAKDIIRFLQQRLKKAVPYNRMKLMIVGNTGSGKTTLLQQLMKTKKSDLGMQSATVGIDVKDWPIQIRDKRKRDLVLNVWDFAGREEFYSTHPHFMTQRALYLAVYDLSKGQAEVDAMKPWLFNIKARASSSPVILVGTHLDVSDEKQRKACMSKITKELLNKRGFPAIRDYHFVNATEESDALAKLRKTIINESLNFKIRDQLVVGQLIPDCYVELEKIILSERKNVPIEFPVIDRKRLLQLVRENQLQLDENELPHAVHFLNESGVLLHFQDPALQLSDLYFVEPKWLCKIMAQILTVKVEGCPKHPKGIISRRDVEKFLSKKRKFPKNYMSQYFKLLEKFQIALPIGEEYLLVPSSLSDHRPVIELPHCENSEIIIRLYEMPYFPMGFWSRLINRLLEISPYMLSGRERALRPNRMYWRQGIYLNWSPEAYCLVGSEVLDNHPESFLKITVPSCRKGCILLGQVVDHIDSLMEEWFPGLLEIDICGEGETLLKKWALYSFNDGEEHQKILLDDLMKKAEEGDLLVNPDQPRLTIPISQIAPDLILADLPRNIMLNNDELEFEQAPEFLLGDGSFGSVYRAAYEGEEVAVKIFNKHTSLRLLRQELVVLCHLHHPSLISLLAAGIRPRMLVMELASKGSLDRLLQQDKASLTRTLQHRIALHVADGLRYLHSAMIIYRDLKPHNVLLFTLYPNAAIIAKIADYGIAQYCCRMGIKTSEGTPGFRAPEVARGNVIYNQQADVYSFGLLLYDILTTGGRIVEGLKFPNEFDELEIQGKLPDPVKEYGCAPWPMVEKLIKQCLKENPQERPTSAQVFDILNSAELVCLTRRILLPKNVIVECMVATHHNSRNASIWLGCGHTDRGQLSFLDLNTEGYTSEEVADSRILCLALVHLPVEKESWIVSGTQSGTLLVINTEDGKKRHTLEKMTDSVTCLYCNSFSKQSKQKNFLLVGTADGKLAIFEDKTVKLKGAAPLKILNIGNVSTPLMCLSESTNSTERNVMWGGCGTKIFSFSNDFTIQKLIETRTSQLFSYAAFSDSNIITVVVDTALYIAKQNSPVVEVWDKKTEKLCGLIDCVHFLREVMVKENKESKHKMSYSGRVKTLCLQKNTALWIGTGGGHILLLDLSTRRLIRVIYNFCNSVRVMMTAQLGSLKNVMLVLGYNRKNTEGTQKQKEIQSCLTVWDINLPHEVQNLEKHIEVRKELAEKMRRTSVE
T1 sequence (Q5S007 whole entry G2019S): as the sequence (Q5S007 whole entry) above, with G2019S counted along it
T3 sequence (Q38SD2 whole entry): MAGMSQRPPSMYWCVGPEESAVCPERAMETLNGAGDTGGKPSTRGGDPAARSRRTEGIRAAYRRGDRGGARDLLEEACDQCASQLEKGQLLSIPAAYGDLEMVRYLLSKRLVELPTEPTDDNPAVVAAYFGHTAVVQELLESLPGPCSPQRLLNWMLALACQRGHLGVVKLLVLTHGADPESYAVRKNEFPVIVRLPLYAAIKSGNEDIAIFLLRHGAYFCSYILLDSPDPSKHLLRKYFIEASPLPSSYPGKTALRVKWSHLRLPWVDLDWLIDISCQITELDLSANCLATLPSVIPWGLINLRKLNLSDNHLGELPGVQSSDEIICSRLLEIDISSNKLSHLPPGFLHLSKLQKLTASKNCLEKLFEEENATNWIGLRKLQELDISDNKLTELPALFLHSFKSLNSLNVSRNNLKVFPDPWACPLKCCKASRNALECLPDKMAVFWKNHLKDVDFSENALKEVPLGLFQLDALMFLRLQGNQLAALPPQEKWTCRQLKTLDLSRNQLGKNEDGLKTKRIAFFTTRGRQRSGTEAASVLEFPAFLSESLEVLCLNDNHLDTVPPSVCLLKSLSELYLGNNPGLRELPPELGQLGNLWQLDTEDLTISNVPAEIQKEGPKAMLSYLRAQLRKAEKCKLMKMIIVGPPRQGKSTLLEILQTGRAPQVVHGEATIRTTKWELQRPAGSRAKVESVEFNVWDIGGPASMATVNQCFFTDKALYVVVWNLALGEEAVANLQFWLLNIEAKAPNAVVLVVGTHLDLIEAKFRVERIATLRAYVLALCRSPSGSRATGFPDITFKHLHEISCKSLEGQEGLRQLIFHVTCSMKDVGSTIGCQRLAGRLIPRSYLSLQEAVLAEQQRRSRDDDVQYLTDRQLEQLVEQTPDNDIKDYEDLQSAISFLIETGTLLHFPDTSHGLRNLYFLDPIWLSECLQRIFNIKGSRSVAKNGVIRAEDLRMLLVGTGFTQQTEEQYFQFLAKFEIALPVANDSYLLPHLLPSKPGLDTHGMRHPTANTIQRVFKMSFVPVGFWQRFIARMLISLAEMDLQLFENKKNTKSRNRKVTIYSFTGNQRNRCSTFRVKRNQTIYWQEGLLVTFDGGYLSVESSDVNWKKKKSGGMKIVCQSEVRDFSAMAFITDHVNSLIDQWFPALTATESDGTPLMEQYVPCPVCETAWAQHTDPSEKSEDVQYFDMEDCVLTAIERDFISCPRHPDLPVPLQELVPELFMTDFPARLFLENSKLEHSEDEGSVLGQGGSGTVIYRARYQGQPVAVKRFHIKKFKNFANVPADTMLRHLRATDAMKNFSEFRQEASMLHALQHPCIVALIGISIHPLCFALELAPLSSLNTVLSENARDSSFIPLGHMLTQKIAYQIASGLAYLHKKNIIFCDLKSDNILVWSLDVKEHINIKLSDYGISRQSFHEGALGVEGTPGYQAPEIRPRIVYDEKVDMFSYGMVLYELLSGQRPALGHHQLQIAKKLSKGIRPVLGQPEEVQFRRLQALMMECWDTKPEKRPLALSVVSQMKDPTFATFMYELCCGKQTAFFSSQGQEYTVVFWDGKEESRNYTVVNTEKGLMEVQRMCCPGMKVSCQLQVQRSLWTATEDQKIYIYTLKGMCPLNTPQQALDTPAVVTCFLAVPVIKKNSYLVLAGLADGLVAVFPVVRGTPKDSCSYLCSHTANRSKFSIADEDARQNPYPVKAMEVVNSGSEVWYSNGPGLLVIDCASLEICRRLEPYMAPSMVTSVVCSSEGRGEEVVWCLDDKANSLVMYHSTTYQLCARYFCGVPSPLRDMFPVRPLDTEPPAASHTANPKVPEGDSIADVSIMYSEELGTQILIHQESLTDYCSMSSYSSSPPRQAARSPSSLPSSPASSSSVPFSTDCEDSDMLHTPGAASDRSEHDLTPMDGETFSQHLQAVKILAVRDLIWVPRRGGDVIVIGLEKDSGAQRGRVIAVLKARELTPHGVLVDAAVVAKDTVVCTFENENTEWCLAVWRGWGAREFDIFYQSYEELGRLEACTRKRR

As to `CN(C)CCCn1cc(C2=C(c3c[nH]c4ccccc34)C(=O)NC2=O)c2ccccc21` [Inhibitor 31, GP109203X, reference compound], the IC50 was found to be 2.62 µM at LRRK2 G2019S [1] (Table 2), 5.27 µM on LRRK2 WT [2] (Table 2), 17 µM against LRRK2 G2019S [3] (Table 2) and 2.19 µM at LRRK2 WT [4] (Table 2). In addition, at LRRK2 WT [2], the “LRRK2 autophosphorylation Average ± SEM” value is reported as 16.1 ± 8.8 % of control. Besides, the “effect on LRRK2 autophosphorylation” value at LRRK2 WT [2] is recorded as “substantially inhibited”. The “MBP phosphorylation Average ± SEM” value on LRRK2 WT [4] is 13.0 ± 8.2 % of control. Further, the “effect on LRRK2-mediated phosphorylation of MBP” value (shortened to “effect … of MBP”) on LRRK2 WT [4] was “substantially inhibited”.
Turning to Raf inhibitor IV, the concentration for half-maximal inhibition (IC50) is 6.51 µM at LRRK2 G2019S [1] (Table 3); 5.43 µM against LRRK2 WT [2] (Table 3); 21.5 µM against LRRK1 WT [6]; 3.94 µM against LRRK2 G2019S [3] (Table 3); 3.61 µM on LRRK2 WT [4] (Table 3). For the same compound, the “selectivity for LRRK2 kinase activity” value on LRRK2 WT [2] (LRRK2 versus LRRK1 kinase activity) is given as “relatively selective”. In addition, the “effect on LRRK1 autophosphorylation” value at LRRK1 WT [5] is given as “minimal to no effect”. For the same compound, the “effect on LRRK1 MBP phosphorylation” value on LRRK1 WT [6] is “minimal to no effect”.
For `O=C1c2ccccc2-c2n[nH]c3cccc1c23` [Inhibitor 68, SP600125, reference compound], the IC50 at LRRK2 G2019S [1] (Table 2) turned out to be 5 µM; against LRRK2 WT [2] (Table 2), 3.71 µM; on LRRK2 G2019S [3] (Table 2), 3.37 µM; at LRRK2 WT [4] (Table 2), 3.1 µM. Besides, on LRRK2 WT [2], the “LRRK2 autophosphorylation Average ± SEM” value is 18.3 ± 22.8 % of control. On LRRK2 WT [2], the “effect on LRRK2 autophosphorylation” value is recorded as “substantially inhibited”. Also, on LRRK2 WT [4], the “MBP phosphorylation Average ± SEM” value is 31.2 ± 12.1 % of control. Moreover, at LRRK2 WT [4], the “effect … of MBP” value was “substantially inhibited”.
As for `COc1ccc(S(=O)(=O)N(CCO)c2ccccc2CN(C)C/C=C/c2ccc(Cl)cc2)cc1` [Inhibitor 41, KN-93], the “effect on LRRK1 autophosphorylation” value at LRRK1 WT [5] is reported as “no effect”. For the same compound, the “effect on LRRK1 MBP phosphorylation” value at LRRK1 WT [6] was “no effect”. For the same compound, the “effect … of MBP” value on LRRK2 WT [4] is reported as “no effect”.
For `COc1c(C=O)c(O)cc2c1C(=O)c1ccccc1C2=O` [Inhibitor 22, Damnacanthal, reference compound], the IC50 was found to be 9.45 µM at LRRK2 G2019S [1] (Table 2), 19.1 µM against LRRK2 WT [2] (Table 2), 5.25 µM at LRRK2 G2019S [3] (Table 2) and 7.81 µM against LRRK2 WT [4] (Table 2). Also, on LRRK2 WT [2], the “LRRK2 autophosphorylation Average ± SEM” value is recorded as 34.7 ± 6.2 % of control. Besides, on LRRK2 WT [2], the “effect on LRRK2 autophosphorylation” value was “substantially inhibited”. For the same compound, at LRRK2 WT [4], the “MBP phosphorylation Average ± SEM” value is on record as 35.7 ± 10.3 % of control. Further, at LRRK2 WT [4], the “effect … of MBP” value was “substantially inhibited”.
Turning to `Nc1ncnc2c1c(I)cn2[C@@H]1O[C@H](CO)[C@@H](O)[C@H]1O` [Inhibitor 49, 5-iodo-tubercidin, reference compound], the IC50 against LRRK2 G2019S [1] (Table 2) was found to be 3.41 µM; against LRRK2 WT [2] (Table 2), 3.21 µM; against LRRK2 G2019S [3] (Table 2), 4.23 µM; against LRRK2 WT [4] (Table 2), 14.8 µM. Further, at LRRK2 WT [2], the “LRRK2 autophosphorylation Average ± SEM” value was 29.4 ± 14.7 % of control. Also, the “effect on LRRK2 autophosphorylation” value on LRRK2 WT [2] is reported as “substantially inhibited”. At LRRK2 WT [4], the “MBP phosphorylation Average ± SEM” value is reported as 39.3 ± 9.9 % of control. In addition, the “effect … of MBP” value at LRRK2 WT [4] is reported as “substantially inhibited”.
For `Cn1cc(C2=C(c3cn(CCCSC(=N)N)c4ccccc34)C(=O)NC2=O)c2ccccc21` [Inhibitor 33, Ro31-8220, reference compound], the IC50 against LRRK2 G2019S [1] (Table 2) was determined as 5.16 µM; on LRRK2 WT [2] (Table 2), 1.64 µM; against LRRK2 G2019S [3] (Table 2), 4.51 µM; against LRRK2 WT [4] (Table 2), 0.05 µM. Also, the “LRRK2 autophosphorylation Average ± SEM” value at LRRK2 WT [2] is 5.4 ± 3.0 % of control. Moreover, at LRRK2 WT [2], the “effect on LRRK2 autophosphorylation” value was “substantially inhibited”. Besides, the “MBP phosphorylation Average ± SEM” value at LRRK2 WT [4] is listed as 26.0 ± 38.5 % of control. The “effect … of MBP” value on LRRK2 WT [4] is “substantially inhibited”.
As for `CNC(=O)c1cc(Oc2ccc(NC(=O)Nc3ccc(Cl)c(C(F)(F)F)c3)cc2)ccn1` [Sorafenib], the “effect on LRRK1 autophosphorylation” value on LRRK1 WT [5] is “minimal to no effect”. The “worms with wild-type DA neurons (4 CEP and 2 ADE)” value in experiment [7] (25 μM, 7-day-old worms, n=90, 48% with 1% DMSO) is given as 62%. Besides, in experiment [7] (7 day-old worms), the “rescue of DA neurodegeneration” value was “protect worms from neurodegeneration”. Also, on LRRK1 WT [6], the “effect on LRRK1 MBP phosphorylation” value is “minimal to no effect” and the IC50 is 13.8 µM. In experiment [8], the “G2019S LRRK2 toxicity” value is on record as “completely protected”.
